# What was measured:
# Experiment in all cases: Culture with hemin and agitation, different strains (Example 4)
# Format in all cases: cell-based, L. lactis
# IL582 = settings: strain IL582, hemin 10 μg/ml and agitation, M17 1% glucose, 24 h
# Experimental: (§1) Bacteria [MG1363 and 7 strains (IL1403, IL582, IL801, IL896, Z105, Z106, Z191) representative of L. lactis subgroups [TAILLEZ et al., System. Appl. Microbiol., 21, 530-538, (1998)] are cultured in M17 medium (1% glucose) inoculated (1/1000 dilution) with a saturated starter culture previously grown at 30° C. for 24 h. Hemin at a final concentration of 10 μg/ml is added to the inoculated medium before aerating the cultures by shaking (minimum 220 rpm). Control cultures are grown in parallel with no hemin in the medium, and no shaking. […]
# IL896 = settings: strain IL896, hemin 10 μg/ml and agitation, M17 1% glucose, 24 h
# Experimental: as §1
# Z105 = settings: strain Z105, hemin 10 μg/ml and agitation, M17 1% glucose, 24 h
# Experimental: as §1
# Z106 = settings: strain Z106, hemin 10 μg/ml and agitation, M17 1% glucose, 24 h
# Experimental: Bacteria [MG1363 and 7 strains (IL1403, IL582, IL801, IL896, Z105, Z106, Z191) representative of L. lactis subgroups [TAILLEZ et al., System. Appl. Microbiol., 21, 530-538, (1998)] are cultured in M17 medium (1% glucose) inoculated (1/1000 dilution) with a saturated starter culture previously grown at 30° C. for 24 h. Hemin at a final concentration of 10 μg/ml is added to the inoculated medium before aerating the cultures by shaking (minimum 220 rpm). Control cultures are grown in parallel with no hemin in the medium, and no shaking. After 24 h., aliquots are taken and OD600 and final pH are measured.
smiles,measurement,setting,value
C=CC1=C(C)c2cc3[n-]c(cc4nc(cc5[n-]c(cc1n2)c(C)c5C=C)C(C)=C4CCC(=O)O)c(CCC(=O)O)c3C.[Cl-].[Fe+3] [hemin],pH,IL582; final pH,5.73
same,OD500 nm,IL582,5.1
same,pH,IL896; final pH,5.24
same,OD500 nm,IL896,4.5
same,pH,Z105; final pH,5.67
same,OD500 nm,Z105,5
same,pH,Z106; final pH,5.74
same,OD500 nm,Z106,4.5

# Source: patent US20160075991A1, “Process for Preparing Starter Cultures of Lactic Acid Bacteria” (INSTITUT NATIONAL DE LA RECHERCHE, priority 1998, published 2016)
